Experimental data: US20180000085A1, “USE OF PICOLINAMIDE COMPOUNDS WITH FUNGICIDAL ACTIVITY” (DOW AGROSCIENCES LLC, priority 2014, published 2018)

What was measured:
Zymoseptoria tritici = assay: Leaf blotch of wheat (SEPTTR) disease control on wheat seedlings; type: in vivo; set-up: key to SEPTTR 1DP, HV activity at 100 ppm (% control rating) / SEPTTR 3DC, HV activity at 100 ppm (% control rating) / SEPTTR disease control, 1DP / SEPTTR disease control, 3DC / SEPTTR 1DP disease control rating, HV activity / SEPTTR 3DC disease control rating, HV activity / SEPTTR 3DC, LV activity at 125.1 g/H (% Control rating) / SEPTTR 1DP, LV activity at 125.1 g/H (% Control rating) / SEPTTR 1DP disease control rating, LV activity at 125.1 g/H / SEPTTR 3DC disease control rating, LV activity at 125.1 g/H / SEPTTR 3DC disease control rating, HV activity at 100 ppm / SEPTTR 1DP disease control rating, HV activity at 100 ppm / HV activity at 100 ppm SEPTTR 3DC (disease control rating) / HV activity at 100 ppm SEPTTR 1DP (disease control rating) / LV activity at 125.1 g/H SEPTTR 1DP (disease control rating) / LV activity at 125.1 g/H SEPTTR 3DC (disease control rating): A: > 80; B: ≤ 80; C: Not Tested; D: No Activity Observed in the Reported Assay; settings: for SEPTTR 1DP disease control rating, HV activity / SEPTTR 3DC disease control rating, HV activity: HV application at 100 ppm, wheat leaf blotch; for SEPTTR 1DP disease control rating, HV activity / SEPTTR 1DP, LV activity at 125.1 g/H (% Control rating): 1 Day Protectant; for SEPTTR 3DC disease control rating, HV activity / SEPTTR 3DC, LV activity at 125.1 g/H (% Control rating): 3 Day Curative; for SEPTTR 1DP, LV activity at 125.1 g/H (% Control rating) / SEPTTR 3DC, LV activity at 125.1 g/H (% Control rating) / SEPTTR 1DP disease control rating, LV activity at 125.1 g/H / SEPTTR 3DC disease control rating, LV activity at 125.1 g/H: low volume application
Puccinia triticina = assay: Wheat brown rust (PUCCRT) disease control on wheat seedlings; type: in vivo; set-up: key to PUCCRT 3DC, HV activity at 100 ppm (% control rating) / PUCCRT disease control, 3DC / PUCCRT 1DP disease control rating, HV activity / PUCCRT 3DC disease control rating, HV activity / PUCCRT 3DC, LV activity at 125.1 g/H (% Control rating) / PUCCRT 1DP, LV activity at 125.1 g/H (% Control rating) / PUCCRT 3DC disease control rating, LV activity at 125.1 g/H / PUCCRT 1DP disease control rating, LV activity at 125.1 g/H / PUCCRT 3DC disease control rating, HV activity at 100 ppm / PUCCRT 1DP disease control rating, HV activity at 100 ppm / HV activity at 100 ppm PUCCRT 3DC (disease control rating) / LV activity at 125.1 g/H PUCCRT 1DP (disease control rating) / LV activity at 125.1 g/H PUCCRT 3DC (disease control rating): A: > 80; B: ≤ 80; C: Not Tested; D: No Activity Observed in the Reported Assay; settings: for PUCCRT 1DP disease control rating, HV activity / PUCCRT 3DC disease control rating, HV activity: HV application at 100 ppm, wheat brown rust; for PUCCRT 1DP disease control rating, HV activity / PUCCRT 1DP, LV activity at 125.1 g/H (% Control rating): 1 Day Protectant; for PUCCRT 3DC disease control rating, HV activity / PUCCRT 3DC, LV activity at 125.1 g/H (% Control rating): 3 Day Curative; for PUCCRT 1DP, LV activity at 125.1 g/H (% Control rating) / PUCCRT 3DC, LV activity at 125.1 g/H (% Control rating) / PUCCRT 1DP disease control rating, LV activity at 125.1 g/H / PUCCRT 3DC disease control rating, LV activity at 125.1 g/H: low volume application
[1] = high volume application, 100 ppm, 1 day protectant
[2] = high volume application, 100 ppm, 3 day curative

Row | Compound | SEPTTR 1DP disease control rating, HV activity (Zymoseptoria tritici) | SEPTTR 3DC disease control rating, HV activity (Zymoseptoria tritici) | PUCCRT 1DP disease control rating, HV activity (Puccinia triticina) | PUCCRT 3DC disease control rating, HV activity (Puccinia triticina) | other results
1 | CC[C@H](Cc1ccccc1)[C@@H](Oc1ccccc1)[C@H](C)OC(=O)CNC(=O)c1nccc(OC)c1O [Cmpd 312] | D | D | A (> 80) | A (> 80) | –
2 | CCC(CC)[C@@H](Oc1cc(F)ccc1F)[C@H](C)OC(=O)[C@@H](NC(=O)c1nccc(OC)c1O)C(C)C [Cmpd 409] | D | D | B (≤ 80) | B (≤ 80) | –
3 | CCC(CC)C(Oc1cc(F)cc(Cl)c1)C(C)OC(=O)C(C)NC(=O)c1nccc(OC)c1O (stereo not shown) [Cmpd 383] | B (≤ 80) | A (> 80) | A (> 80) | A (> 80) | –
4 | COc1ccnc(C(=O)N[C@@H](C)C(=O)O[C@@H](C)[C@H](Oc2ccc(C(F)(F)F)cc2)c2ccccc2)c1OC(C)=O [Cmpd 583] | – | – | – | – | SEPTTR 1DP, LV activity at 125.1 g/H (% Control rating) (Zymoseptoria tritici): A (> 80); SEPTTR 3DC, LV activity at 125.1 g/H (% Control rating) (Zymoseptoria tritici): A (> 80); PUCCRT 1DP, LV activity at 125.1 g/H (% Control rating) (Puccinia triticina): A (> 80); PUCCRT 3DC, LV activity at 125.1 g/H (% Control rating) (Puccinia triticina): B (≤ 80)
5 | CCCOC(CC)C(Oc1ccccc1)C(C)OC(=O)C(C)(C)NC(=O)c1nccc(OC)c1O (stereo not shown) [Cmpd 417] | D | B (≤ 80) | D | D | –
6 | CCC(CC)[C@@H](Oc1cccc(Cl)c1)[C@H](C)OC(=O)[C@@H](NC(=O)c1nccc(OC)c1OC(C)=O)C(C)C [Cmpd 658] | – | – | – | – | SEPTTR 1DP disease control rating, LV activity at 125.1 g/H (Zymoseptoria tritici; 1 day protectant): D; SEPTTR 3DC disease control rating, LV activity at 125.1 g/H (Zymoseptoria tritici; 3 day curative): B (≤ 80); PUCCRT 1DP disease control rating, LV activity at 125.1 g/H (Puccinia triticina; 1 day protectant): A (> 80); PUCCRT 3DC disease control rating, LV activity at 125.1 g/H (Puccinia triticina; 3 day curative): B (≤ 80)
7 | COc1ccnc(C(=O)NC(C)C(=O)OC(C)C(OC)c2ccccc2)c1O (stereo not shown) [Cmpd 823] | – | – | – | – | SEPTTR 1DP disease control rating, HV activity at 100 ppm (Zymoseptoria tritici; [1]): D; SEPTTR 3DC disease control rating, HV activity at 100 ppm (Zymoseptoria tritici; [2]): B (≤ 80); PUCCRT 1DP disease control rating, HV activity at 100 ppm (Puccinia triticina; [1]): B (≤ 80); PUCCRT 3DC disease control rating, HV activity at 100 ppm (Puccinia triticina; [2]): A (> 80)
8 | CCC(CC)[C@@H](Oc1ccc(C(F)(F)F)cc1)[C@H](C)OC(=O)[C@@H](NC(=O)c1nccc(OC)c1O)C(C)C [Cmpd 412] | B (≤ 80) | B (≤ 80) | B (≤ 80) | D | –
9 | COc1ccnc(C(=O)N[C@@H](C)C(=O)O[C@@H](C)[C@H](Oc2cc(F)cc(Cl)c2)C(C)C)c1OC(C)=O [Cmpd 628] | – | – | – | – | SEPTTR 1DP, LV activity at 125.1 g/H (% Control rating) (Zymoseptoria tritici): B (≤ 80); SEPTTR 3DC, LV activity at 125.1 g/H (% Control rating) (Zymoseptoria tritici): A (> 80); PUCCRT 1DP, LV activity at 125.1 g/H (% Control rating) (Puccinia triticina): A (> 80); PUCCRT 3DC, LV activity at 125.1 g/H (% Control rating) (Puccinia triticina): A (> 80)
10 | CCC(CC)C(Oc1cccc(F)c1)C(C)OC(=O)C(CC(C)C)NC(=O)c1nccc(OC)c1OC(C)=O (stereo not shown) [Cmpd 685] | – | – | – | – | SEPTTR 1DP disease control rating, LV activity at 125.1 g/H (Zymoseptoria tritici; 1 day protectant): D; SEPTTR 3DC disease control rating, LV activity at 125.1 g/H (Zymoseptoria tritici; 3 day curative): B (≤ 80); PUCCRT 1DP disease control rating, LV activity at 125.1 g/H (Puccinia triticina; 1 day protectant): B (≤ 80); PUCCRT 3DC disease control rating, LV activity at 125.1 g/H (Puccinia triticina; 3 day curative): D
